Results from patent publication US11479528B2, “Heat shock protein 90 inhibitors” (TAIPEI MEDICAL UNIVERSITY, priority 2017, dated 2022).
Where two headings read alike, the source gives them in different places.

Tests used:
breast MDA-MB-231 = assay: Sulforhodamine B (SRB) assay, breast MDA-MB-231; assay type: cell-based; settings: Homo sapiens
Procedure: (§1) Human cancer cells were purchased from the American Type Culture Collection (Manassas, Va., USA). These cell lines were cultured in RPMI 1640 medium or DMEM supplemented with 10% FBS (v/v) and pencillin (100 U/mL)/streptomycin (100 ug/mL)/amphotericin B (0.25 ug/mL). Cultures were maintained at 37° C. in a humidified atmosphere of 5% CO2/95% air.
(§2) Cells were seeded in 96-well plates in medium with 5% fetal bovine serum. After 24 h, cells were fixed with 10% trichloroacetic acid to represent cell population at the time of drug addition (T0). After additional incubation of DMSO or drugs for 48 h, cells were fixed with 10% trichloroacetic acid and sulforhodamine B at 0.4% (w/v) in 1% acetic acid was added to stain cells. Unbound sulforhodamine B was washed out by 1% acetic acid and sulforhodamine B-bound cells were solubilized with 10 mmol/L Trizma base. The absorbance was read at a wavelength of 515 nm. Using the following absorbance measurements, such as time zero (T0), control growth (C), and cell growth in the presence of the drug (Tx), the percentage growth was calculated at each of the compound concentrations levels. Percentage growth inhibition was calculated as […].

[1] = system: HSP90 client proteins, i.e., EGFR, Akt, CDK-4, and HSP70, in HCT-116 tumor cells; assay: Western blot of HSP90 client proteins in HCT-116 tumor cells; assay type: cell-based, human; settings: HCT-116 cells, 24 hours after treatment
Procedure: Western blot analysis was performed to detect cell apoptotic signaling activated by substituted aromatic compounds of formula (I). Cells were harvested by scraping with lysis buffer (1 mM EGTA, 1 mM EDTA, 150 mM NaCl, 1% Triton X-100, 2.5 mM sodium pyrophosphate, 1 mM PMSF, 1 mM Na3VO4, 1 ug/mL leupeptin, 1 ug/mL aprotinin, 5 mM NaF in 20 mM Tris-HCl buffer, pH 7.5). Cell lysates were centrifuged at 13,000 g for 30 min. Total protein was determined and equal amounts of protein were separated by SDS-PAGE and immunoblotted with specific antibodies. Proteins were visualized by enhanced chemiluminescence (Amersham, Buckinghamshire, UK).
Total cellular extracts were obtained 24 hours after treatment.

HUVEC cells = assay: Sulforhodamine B (SRB) assay, HUVEC; settings: for GI50: Homo sapiens, HUVEC
Procedure: as §1, §2

[2] = Pharmacokinetic profiles in rat; settings: in vivo
Procedure: A pharmacokinetic study was conducted to evaluate the pharmacokinetic properties of compounds of formula (I).

liver Hep3B = assay: Sulforhodamine B (SRB) assay, liver Hep3B; assay type: cell-based; settings: Homo sapiens
Procedure: as §1, §2

lung A549 = assay: Sulforhodamine B (SRB) assay, lung A549; assay type: cell-based, human; settings: Homo sapiens
Procedure: Human cancer cells were purchased from the American Type Culture Collection (Manassas, Va., USA).
Cells were seeded in 96-well plates in medium with 5% fetal bovine serum. […] Unbound sulforhodamine B was washed out by 1% acetic acid and sulforhodamine B-bound cells were solubilized with 10 mmol/L Trizma base. […] Using the following absorbance measurements, such as time zero (T0), control growth (C), and cell growth in the presence of the drug (Tx), the percentage growth was calculated at each of the compound concentrations levels. Percentage growth inhibition was calculated as […].

[3] = system: human colon HCT116 xenograft; assay: Human colon HCT116 xenograft model; settings: po; for TGI, tumor growth inhibition: n = 7-8
Procedure: An in vivo study was conducted to evaluate the efficacy of compounds of formula (I) in suppressing tumor growth in a human colon HCT116 xenograft model.

HSP90 α protein = HSP90 α protein (Homo sapiens, UniProt P07900); assay: HSP90 ATP-binding / fluorescence polarization competition assay (enzyme inhibition)
Procedure: To assess the inhibition of HSP90 activity within a cellular context, cells were treated with certain substituted aromatic compounds of formula (I) and the inhibition of HSP90 ATP-binding activity in cells was determined by using an ATP pull-down assay. Cells were treated with the compounds for 24 hours and then lysed in TNESV buffer (50 mM Tris, 2 mM EDTA, […], 1 mM activated sodium orthovanadate, 25 mM NaF, 1% Triton X-100 [pH 7.5]) for 30 min at 4° C. Lysates were spun for 30 min at 12000 rpm at 4° C. Protein (200 ug) was incubated with conditioned γ-ATP-polyacrylamide resin in incubation buffer (10 mM Tris-HCl, 50 mM KCl, 5 mM MgCl2, 20 mM Na2MoO4, 0.01% Nonidet P-40) overnight at 4° C., rotating. The resin was then washed four times with incubation buffer. Bound proteins were isolated by boiling with SDS buffer. For the competition studies, fluorescence polarization assays were performed under the following conditions: each 96-well plate contained 5 nM fluorescent GM (geldanamycin), 30 nM HSP90 α protein, and tested inhibitor in a final volume of 100 uL. For each assay, background wells (buffer only), tracer controls (free, fluorescent GMonly), and bound GM controls (fluorescent GM in the presence of HSP90) were included on each assay plate. The fraction of tracer bound to HSP90 was correlated to the mP value and plotted against log 10 values of competitor concentrations. The inhibitor concentration at which 50% of bound GM was displaced was obtained by fitting the data.

colorectal HCT116 = assay: Sulforhodamine B (SRB) assay, colorectal HCT116; assay type: cell-based; settings: Homo sapiens
Procedure: as §1, §2

[4] = Maximum tolerated dose and therapeutic index in vivo; settings: for MTD: in vivo, po
lymphoblast MOLT4 = assay: MTT antiproliferative assay, MOLT4; assay type: cell-based; settings: Homo sapiens, MOLT-4
bone marrow K562 = assay: MTT antiproliferative assay, K562; assay type: cell-based; settings: Homo sapiens
[5] = system: human lung NSCLC A549 cancer xenograft; assay: Human lung NSCLC A549 cancer xenograft model; assay type: in vivo; settings: daily oral administration
leukemia HL60 = assay: MTT antiproliferative assay, HL60; assay type: cell-based; settings: Homo sapiens, HL-60
[6] = MDA-MB-231, 48 h, read-out: GI50 Breast MDA-MB-231
[7] = MDA-MB-231, read-out: MDA-MB-231 GI50
[8] = 48 h, read-out: GI50 Liver Hep3B
[9] = A549, 48 h, read-out: GI50 Lung A549
[10] = HCT-116, 48 h, read-out: GI50 Colorectal HCT116

SMILES	GI50 (breast MDA-MB-231; [6]) [nM]	GI50 (breast MDA-MB-231; [7]) [nM]	expression levels of the chaperone HSP70 [1]	levels of HSP90 client proteins (EGFR, Akt, CDK-4) [1]	TI, Therapeutic Index measured by GI50(HUVEC)/GI50(A549) (HUVEC cells)	GI50 (HUVEC cells; 48 h, read-out: GI50 HUVEC) [nM]	GI50 (HUVEC cells; read-out: HUVEC GI50) [nM]	AUC(0-inf) ([2]; iv, 2 mg/kg) [ng·h/mL]	Vd ([2]; iv, 2 mg/kg) [L/kg]	clearance ([2]; iv, 2 mg/kg) [mL/min/kg]	half-life ([2]; iv, 2 mg/kg) [h]	AUC(0-inf) ([2]; po, 20 mg/kg) [ng·h/mL]	Cmax ([2]; po, 20 mg/kg) [ng/mL]	Tmax ([2]; po, 20 mg/kg) [h]	bioavailability ([2]; po, 20 mg/kg) [%]	half-life ([2]; po, 20 mg/kg) [h]	GI50 (liver Hep3B; [8]) [nM]	GI50 (liver Hep3B; read-out: Hep3B GI50) [nM]	IC50 (HSP90 α protein) [nM]	MTD [4] [mg/kg]	other results
CC(C)c1cc(C(=O)N(C)c2ccc3c(ccn3C)c2)c(O)cc1O [Compound 20g, 2,4-dihydroxy-5-isopropyl-N-methyl-N-(1-methyl-1H-indol-5-yl)benzamide]	100 ± 20	100 ± 20	increase	substantial depletion	2.9	820 ± 30	820 ± 30	288 ± 59	4.3 ± 1.3	117 ± 23	0.7 ± 0.1	36 ± 5	12.8 ± 8.3	0.5 ± 0.4	1.3	2.2 ± 0.6	570 ± 320	570 ± 320	106 ± 7.58	< 250	GI50 (lung A549; [9]): 280 ± 20 nM; GI50 (lung A549; A549, read-out: A549 GI50): 280 ± 20 nM; TGI, tumor growth inhibition ([3]; 100 mg/kg, qd): 83.9%; GI50 (colorectal HCT116; [10]): 700 ± 60 nM; GI50 (colorectal HCT116; HCT-116, read-out: HCT116 GI50): 700 ± 60 nM; TI, Therapeutic Index, ratio of MTD to minimum efficacious dose (MED) [4]: <2.5
CC(C)c1cc(C(=O)N(C)c2ccc3[nH]ccc3c2)c(O)cc1O [Compound 20b, 2,4-dihydroxy-N-(1H-indol-5-yl)-5-isopropyl-N-methylbenzamide]	70 ± 10	70 ± 10	increase	substantial depletion	3.4	570 ± 20	570 ± 20	142 ± 25	18 ± 4.5	237 ± 37	1.3 ± 0.3	533 ± 154	82 ± 34	2.2 ± 1.8	37	7.5 ± 1.3	180 ± 40	180 ± 40	115 ± 10.7	< 250	GI50 (lung A549; [9]): 170 ± 10 nM; GI50 (lung A549; A549, read-out: A549 GI50): 170 ± 10 nM; Loss of Body ([3]; 100 mg/kg, qd × 7/5 on 2 off, Day 5): −8.5%; TGI, tumor growth inhibition ([3]; 100 mg/kg, qd × 7/5 on 2 off): 37.7%; GI50 (colorectal HCT116; [10]): 1000 ± 490 nM; GI50 (colorectal HCT116; HCT-116, read-out: HCT116 GI50): 1000 ± 490 nM; TI, Therapeutic Index, ratio of MTD to minimum efficacious dose (MED) [4]: <2.5
CCN(C(=O)c1cc(C(C)C)c(O)cc1O)c1cccnc1 [Compound 18b, N-ethyl-2,4-dihydroxy-5-isopropyl-N-(pyridin-3-yl)benzamide]			increase	substantial depletion					5.5 ± 1.1				40 ± 13	6 ± 2					110 ± 3.13	250	GI50 (breast MDA-MB-231; MDA-MB-231, Table 2, SRB, read-out: MDA-MB-231 GI50): 90 ± 10 nM; IC50 (lymphoblast MOLT4): 190 ± 10 nM; AUC(0-inf) ([2]; iv, 2 mg/kg, AUC(0-inf), IV (2 mg/kg)): 520 ± 14 ng·h/mL; clearance ([2]; iv, 2 mg/kg, CL, IV (2 mg/kg)): ~64 mL/min/kg; half-life ([2]; iv, 2 mg/kg, T1/2, rat, IV (2 mg/kg)): 4 ± 1.7 h; bioavailability ([2]; oral, 20 mg/kg): 25%; AUC(0-inf) ([2]; po, 20 mg/kg, AUC(0-inf), PO (20 mg/kg)): ~1310 ng·h/mL; half-life ([2]; po, 20 mg/kg, T1/2, rat, PO (20 mg/kg)): ~27.7 h; IC50 (bone marrow K562): 130 ± 90 nM; Loss of Body ([3]; 25 mg/kg, qd): 0%; TGI, tumor growth inhibition ([3]; 25 mg/kg, qd): 55.6%; Loss of Body ([3]; 100 mg/kg, qd): 0%; TGI, tumor growth inhibition ([3]; 100 mg/kg, qd): 74.3%; TGI ([5]; 25 mg/kg): 46.7%; TGI ([5]; 50 mg/kg): 46.9%; TGI ([5]; 100 mg/kg): 50.9%; body weight loss ([5]; 25, 50, and 100 mg/kg): without significant body weight loss; IC50 (leukemia HL60): 240 ± 40 nM
